Test results published in patent publication US11053218B2, “3-(1-oxoisoindolin-2-yl)piperidine-2,6-dione derivatives and uses thereof” (Novartis AG, priority 2017, dated 2021).

Assays:
Assay type in all cases: cell-based
IKZF2 = IKZF2 (Homo sapiens, UniProt Q96SW2+Q9UKS7); assay: Prolabel quantification of IKZF2 protein levels in 293GT cells; details: for inhibition at 10 µM: 24 h, read-out: IKZF2 % protein reduction at 10 μM, 24 h; for inhibition at 10 µM / DC50: 293GT cells; for DC50: Prolabel assay, read-out: IKZF2 EC50; for IKZF2 protein levels as compared to the control (DMSO): Prolabel assay in HEK293GT cells, bar graph
Sequence of IKZF2 (Q9UKS7 whole entry): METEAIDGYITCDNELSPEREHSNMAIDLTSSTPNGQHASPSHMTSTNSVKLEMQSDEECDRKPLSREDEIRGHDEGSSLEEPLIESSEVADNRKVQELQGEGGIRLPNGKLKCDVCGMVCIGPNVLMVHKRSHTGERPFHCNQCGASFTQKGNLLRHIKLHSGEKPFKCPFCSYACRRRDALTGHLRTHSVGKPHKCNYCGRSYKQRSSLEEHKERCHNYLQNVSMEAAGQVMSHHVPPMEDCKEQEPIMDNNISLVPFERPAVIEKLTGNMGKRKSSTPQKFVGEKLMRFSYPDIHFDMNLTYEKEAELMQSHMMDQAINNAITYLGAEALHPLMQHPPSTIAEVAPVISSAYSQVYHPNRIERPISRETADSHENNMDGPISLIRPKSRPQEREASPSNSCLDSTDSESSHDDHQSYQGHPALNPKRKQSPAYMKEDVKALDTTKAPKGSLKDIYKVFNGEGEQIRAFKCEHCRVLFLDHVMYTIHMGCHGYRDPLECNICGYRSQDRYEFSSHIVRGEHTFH
Sequence of IKZF2 (Q96SW2 whole entry): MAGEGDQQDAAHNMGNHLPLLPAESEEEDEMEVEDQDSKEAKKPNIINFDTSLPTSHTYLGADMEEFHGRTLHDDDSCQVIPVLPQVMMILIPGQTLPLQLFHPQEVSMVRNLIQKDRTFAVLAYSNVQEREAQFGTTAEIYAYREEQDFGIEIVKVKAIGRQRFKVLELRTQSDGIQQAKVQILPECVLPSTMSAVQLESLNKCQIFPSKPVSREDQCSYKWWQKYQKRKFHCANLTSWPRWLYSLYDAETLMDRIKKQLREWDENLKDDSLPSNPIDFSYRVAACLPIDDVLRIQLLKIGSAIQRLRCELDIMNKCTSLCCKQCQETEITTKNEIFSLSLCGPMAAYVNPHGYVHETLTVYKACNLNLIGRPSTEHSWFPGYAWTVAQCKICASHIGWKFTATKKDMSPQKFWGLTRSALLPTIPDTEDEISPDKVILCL
Sequence of IKZF2 (Q16531 whole entry partner): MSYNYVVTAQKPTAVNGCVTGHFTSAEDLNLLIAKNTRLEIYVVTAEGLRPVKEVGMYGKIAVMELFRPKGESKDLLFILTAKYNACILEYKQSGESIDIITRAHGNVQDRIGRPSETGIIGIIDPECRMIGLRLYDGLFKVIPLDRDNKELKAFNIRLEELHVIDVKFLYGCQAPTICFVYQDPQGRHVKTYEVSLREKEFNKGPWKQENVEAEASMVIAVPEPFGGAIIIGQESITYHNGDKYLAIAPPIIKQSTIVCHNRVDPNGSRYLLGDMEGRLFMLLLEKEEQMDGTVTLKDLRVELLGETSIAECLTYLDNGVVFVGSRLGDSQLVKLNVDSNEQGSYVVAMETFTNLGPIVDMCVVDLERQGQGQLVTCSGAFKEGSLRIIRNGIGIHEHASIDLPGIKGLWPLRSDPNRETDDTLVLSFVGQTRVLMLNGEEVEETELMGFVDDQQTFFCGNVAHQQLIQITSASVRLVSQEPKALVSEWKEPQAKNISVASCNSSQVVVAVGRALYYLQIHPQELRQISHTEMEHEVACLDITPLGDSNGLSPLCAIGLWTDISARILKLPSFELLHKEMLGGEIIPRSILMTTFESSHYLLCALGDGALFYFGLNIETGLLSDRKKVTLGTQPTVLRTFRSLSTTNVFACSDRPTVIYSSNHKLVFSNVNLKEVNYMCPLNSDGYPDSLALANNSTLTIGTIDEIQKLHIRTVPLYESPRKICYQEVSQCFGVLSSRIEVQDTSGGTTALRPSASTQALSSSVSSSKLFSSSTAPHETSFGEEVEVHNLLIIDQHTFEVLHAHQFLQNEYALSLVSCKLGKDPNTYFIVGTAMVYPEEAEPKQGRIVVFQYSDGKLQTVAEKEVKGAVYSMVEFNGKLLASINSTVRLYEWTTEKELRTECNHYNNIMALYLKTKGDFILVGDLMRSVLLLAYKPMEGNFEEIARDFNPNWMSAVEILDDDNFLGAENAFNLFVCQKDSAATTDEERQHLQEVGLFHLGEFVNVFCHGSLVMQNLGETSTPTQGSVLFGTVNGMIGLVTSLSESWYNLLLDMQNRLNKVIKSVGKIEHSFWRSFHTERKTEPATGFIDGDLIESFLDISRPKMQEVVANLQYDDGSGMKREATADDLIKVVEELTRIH

IKZF1 = IKZF1 (Homo sapiens, UniProt Q13422+Q96SW2); assay: Prolabel quantification of IKZF1 protein levels in 293GT cells; details: Prolabel assay, read-out: IKZF1 EC50
Sequence of IKZF1 (Q13422 whole entry): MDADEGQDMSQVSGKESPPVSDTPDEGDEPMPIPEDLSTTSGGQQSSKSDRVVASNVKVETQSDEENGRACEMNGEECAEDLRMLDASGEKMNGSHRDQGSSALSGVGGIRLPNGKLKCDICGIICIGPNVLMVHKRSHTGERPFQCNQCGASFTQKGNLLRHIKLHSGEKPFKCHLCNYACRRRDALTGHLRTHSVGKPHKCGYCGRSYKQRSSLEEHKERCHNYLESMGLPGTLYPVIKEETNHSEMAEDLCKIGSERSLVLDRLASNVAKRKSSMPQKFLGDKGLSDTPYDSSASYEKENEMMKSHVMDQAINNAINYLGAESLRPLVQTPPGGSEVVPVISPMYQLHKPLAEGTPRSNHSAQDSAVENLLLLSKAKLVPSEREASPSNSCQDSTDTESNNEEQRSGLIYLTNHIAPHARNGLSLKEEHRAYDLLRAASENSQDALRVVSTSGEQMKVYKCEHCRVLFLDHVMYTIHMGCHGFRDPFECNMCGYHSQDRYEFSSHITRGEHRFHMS
Sequence of IKZF1 (Q96SW2 whole entry): as the sequence (Q96SW2 whole entry) above
Sequence of IKZF1 (Q16531 whole entry partner): as the sequence (Q16531 whole entry partner) above

GSPT1 = GSPT1 (Homo sapiens, UniProt P15170+Q96SW2); assay: Prolabel quantification of GSPT1 protein levels in 293GT cells; details: Prolabel assay, read-out: GSPT1 EC50
Sequence of GSPT1 (P15170 whole entry, the tested form may be a part): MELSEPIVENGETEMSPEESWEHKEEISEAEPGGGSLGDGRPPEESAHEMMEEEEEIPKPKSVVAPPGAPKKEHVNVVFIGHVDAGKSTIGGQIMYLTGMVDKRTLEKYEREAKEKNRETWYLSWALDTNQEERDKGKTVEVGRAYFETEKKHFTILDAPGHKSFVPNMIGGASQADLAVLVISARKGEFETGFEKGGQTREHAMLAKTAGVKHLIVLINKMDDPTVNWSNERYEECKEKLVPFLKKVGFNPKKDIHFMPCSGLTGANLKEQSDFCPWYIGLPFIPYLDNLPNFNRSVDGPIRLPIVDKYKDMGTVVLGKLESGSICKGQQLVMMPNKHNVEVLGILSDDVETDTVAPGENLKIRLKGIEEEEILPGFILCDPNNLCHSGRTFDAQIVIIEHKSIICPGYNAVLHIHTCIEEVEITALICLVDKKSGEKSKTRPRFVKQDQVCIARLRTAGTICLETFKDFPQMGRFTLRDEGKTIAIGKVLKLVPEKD
Sequence of GSPT1 (Q96SW2 whole entry, the tested form may be a part): as the sequence (Q96SW2 whole entry) above
Sequence of GSPT1 (Q16531 whole entry partner, the tested form may be a part): as the sequence (Q16531 whole entry partner) above
Method: The Prolabel system from DiscoverX was used to develop high-throughput and quantitative assays to measure changes in IKZF1, IKZF2 and GSPT1 protein levels in response to compounds. The prolabel tag was derived from the alpha fragment of beta galactosidase and has the following protein sequence: mssnslavvlqrrdwenpgvtqlnrlaahppfaswrnseeartdrpsqqlrslnge. The complementary fragment of beta-galactosidase (from DiscoverX), is added to the prolabel tag to form an active beta galactosidase enzyme whose activity can be precisely measured. In this way, the levels of a fusion protein with the prolabel tag can be quantified in cell lysates.
Lentiviral vectors, based on the Invitrogen pLenti6.2/V5 DEST backbone, were constructed that placed the prolabel tag upstream of IKZF1, IKZF2 or GSPT1 and expressed the fusion protein from a CMV promoter.
To ensure moderate and consistent expression of the prolabel fusion proteins across all cells in the population, stable cell lines were constructed from cells expressing a single copy of the construct. Lentivirus packaged with the constructs was made using the Virapower kit from Invitrogen.
The levels of prolabel tagged fusion proteins in compound treated cell lines were measured as follows:
Day 1, Cells were diluted to 1.0×10^6 cells/ml in normal growth medium. 17.5 μL of cells were plated in each well of a solid white 384 well plate. Plates were incubated overnight in a 37° C. tissue culture incubator.
Day 2, Serial dilutions of compounds were made in 384 well plates from 10 mM stocks. 15 μL of DMSO was added to each well of a 384 well plate. In the first column 15 μL of stock compound was added. The solution was mixed and 15 μL was transferred to the next column. This was repeated until 20 two-fold dilutions were prepared. 2.5 μL of diluted compounds were transferred into 60 μL of cell culture medium in another 384 well plate, and mixed well. 2.5 μL of this mixture was added to the plated cells. The final DMSO concentration was 0.5% and the highest concentration of compound was 50 μM. Plates were incubated overnight (e.g., about 14 h, 18 h, or 24 h) in a 37° C. tissue culture incubator.
Day 3, Plates were removed from the incubator and allowed to equilibrate at rt for 30 minutes. Prolabel substrate (DiscoverX PathHunter Prolabel Detection Kit, User manual: 93-0180) was added as described by the manufacturers protocols. Plates were incubated at rt for three hours and luminescence was read using an Envision reader (Perkin Elmer) Data was analyzed and visualized using the Spotfire software package.

inhibition at 10 µM (IKZF2)	DC50 (IKZF2)	DC50 (IKZF1)	DC50 (GSPT1)	IKZF2 protein levels as compared to the control (DMSO) (IKZF2)	SMILES
63%	7 nM	> 50000 nM	> 50000 nM		O=C1CCC(N2Cc3cc(C4CCN(Cc5ccc(F)cc5)CC4)ccc3C2=O)C(=O)N1 (centres unmarked) [Compound I-112, 3-(5-(1-(4-fluorobenzyl)piperidin-4-yl)-1-oxoisoindolin-2-yl)piperidine-2,6-dione]
50%	15 nM	> 30000 nM	> 30000 nM		O=C1CCC(N2Cc3cc(C4CCN(Cc5ccc(Cl)cc5Cl)CC4)ccc3C2=O)C(=O)N1 (centres unmarked) [Compound I-113, 3-(5-(1-(2,4-dichlorobenzyl)piperidin-4-yl)-1-oxoisoindolin-2-yl)piperidine-2,6-dione]
55%	65 nM	> 50000 nM	> 50000 nM		O=C1CCC(N2Cc3cc(C4CCN(Cc5cc[nH]n5)CC4)ccc3C2=O)C(=O)N1 (centres unmarked) [Compound I-118, 3-(5-(1-((1H-pyrazol-3-yl)methyl)piperidin-4-yl)-1-oxoisoindolin-2-yl)piperidine-2,6-dione]
60%	240 nM	> 30000 nM	> 30000 nM		Cc1nc2sccn2c1CN1CCC(c2ccc3c(c2)CN(C2CCC(=O)NC2=O)C3=O)CC1 (centres unmarked) [Compound I-125, 3-(5-(1-((6-methylimidazo[2,1-b]thiazol-5-yl)methyl)piperidin-4-yl)-1-oxoisoindolin-2-yl)piperidine-2,6-dione]
75%	12 nM	> 30000 nM	> 30000 nM		O=C1CCC(N2Cc3cc(C4CCN(Cc5cccn6nccc56)CC4)ccc3C2=O)C(=O)N1 (centres unmarked) [Compound I-128, 3-(1-oxo-5-(1-(pyrazolo[1,5-a]pyridin-4-ylmethyl)piperidin-4-yl)isoindolin-2-yl)piperidine-2,6-dione]
80%	8 nM	> 30000 nM	> 30000 nM		O=C1CCC(N2Cc3cc(C4CCN(Cc5ccc6scnc6c5)CC4)ccc3C2=O)C(=O)N1 (centres unmarked) [Compound I-130, 3-(5-(1-(benzo[d]thiazol-5-ylmethyl)piperidin-4-yl)-1-oxoisoindolin-2-yl)piperidine-2,6-dione]
80%	34 nM	> 30000 nM	> 30000 nM		O=C1CCC(N2Cc3cc(C4CCN(Cc5cn(C6CCC6)nn5)CC4)ccc3C2=O)C(=O)N1 (centres unmarked) [Compound I-134, 3-(5-(1-((1-cyclobutyl-1H-1,2,3-triazol-4-yl)methyl)piperidin-4-yl)-1-oxoisoindolin-2-yl)piperidine-2,6-dione]
60%	57 nM	> 30000 nM	> 30000 nM		O=C1CCC(N2Cc3cc(C4CCN(Cc5cc6n(n5)CCCC6)CC4)ccc3C2=O)C(=O)N1 (centres unmarked) [Compound I-135, 3-(1-oxo-5-(1-((4,5,6,7-tetrahydropyrazolo[1,5-a]pyridin-2-yl)methyl)piperidin-4-yl)isoindolin-2-yl)piperidine-2,6-dione]
80%	12 nM	> 30000 nM	> 30000 nM	decreased	O=C1CCC(N2Cc3cc(C4CCN(Cc5cc6ccccc6[nH]5)CC4)ccc3C2=O)C(=O)N1 (centres unmarked) [Compound I-136, 3-(5-(1-((1H-indo1-2-yl)methyl)piperidin-4-yl)-1-oxoisoindolin-2-yl)piperidine-2,6-dione]
80%	9 nM	> 30000 nM	> 30000 nM		O=C1CCC(N2Cc3cc(C4CCN(Cc5ccc6cn[nH]c6c5)CC4)ccc3C2=O)C(=O)N1 (centres unmarked) [Compound I-137, 3-(5-(1-((1H-indazol-6-yl)methyl)piperidin-4-yl)-1-oxoisoindolin-2-yl)piperidine-2,6-dione]
70%	81 nM	> 30000 nM	> 30000 nM		NC(=O)c1cccc(CN2CCC(c3ccc4c(c3)CN(C3CCC(=O)NC3=O)C4=O)CC2)c1 (centres unmarked) [Compound I-139, 3-((4-(2-(2,6-dioxopiperidin-3-yl)-1-oxoisoindolin-5-yl)piperidin-1-yl)methyl)benzamide]
75%	16 nM	> 30000 nM	> 30000 nM		O=C1CCC(N2Cc3cc(C4CCN(Cc5cnc(N6CCCC6)nc5)CC4)ccc3C2=O)C(=O)N1 (centres unmarked) [Compound I-142, 3-(1-oxo-5-(1-((2-(pyrrolidin-1-yl)pyrimidin-5-yl)methyl)piperidin-4-yl)isoindolin-2-yl)piperidine-2,6-dione]
60%	26 nM	> 30000 nM	> 30000 nM		CC(C)(C)c1nc(CN2CCC(c3ccc4c(c3)CN(C3CCC(=O)NC3=O)C4=O)CC2)cs1 (centres unmarked) [Compound I-143, 3-(5-(1-((2-(tert-butyl)thiazol-4-yl)methyl)piperidin-4-yl)-1-oxoisoindolin-2-yl)piperidine-2,6-dione]
75%	25 nM	> 30000 nM	> 30000 nM	decreased	O=C1CCC(N2Cc3cc(C4CCN(Cc5cnc(N6CCOCC6)nc5)CC4)ccc3C2=O)C(=O)N1 (centres unmarked) [Compound I-147, 3-(5-(1-((2-morpholinopyrimidin-5-yl)methyl)piperidin-4-yl)-1-oxoisoindolin-2-yl)piperidine-2,6-dione]
80%	16 nM	> 30000 nM	> 30000 nM		Cc1ccc2c(CN3CCC(c4ccc5c(c4)CN(C4CCC(=O)NC4=O)C5=O)CC3)c[nH]c2c1 (centres unmarked) [Compound I-149, 3-(5-(1-((6-methyl-1H-indol-3-yl)methyl)piperidin-4-yl)-1-oxoisoindolin-2-yl)piperidine-2,6-dione]
85%	8 nM	43 nM	> 30000 nM		O=C1CCC(N2Cc3cc(C4CCN(Cc5nc(-c6ccccc6)c[nH]5)CC4)ccc3C2=O)C(=O)N1 (centres unmarked) [Compound I-154, 3-(1-oxo-5-(1-((4-phenyl-1H-imidazol-2-yl)methyl)piperidin-4-yl)isoindolin-2-yl)piperidine-2,6-dione]
40%		> 50000 nM	> 50000 nM		O=C1CCC(N2Cc3cc(C4CCNCC4)ccc3C2=O)C(=O)N1 (centres unmarked) [Compound I-155, 3-(1-oxo-5-(piperidin-4-yl)isoindolin-2-yl)piperidine-2,6-dione]
70%	22 nM	> 50000 nM	> 50000 nM		O=C1CCC(N2Cc3cc(C4CCN(Cc5cc(F)c(O)c(F)c5)CC4)ccc3C2=O)C(=O)N1 (centres unmarked) [Compound I-156, 3-(5-(1-(3,5-difluoro-4-hydroxybenzyl)piperidin-4-yl)-1-oxoisoindolin-2-yl)piperidine-2,6-dione]
55%	56 nM	> 50000 nM	> 50000 nM		Cc1ccccc1CN1CCC(c2ccc3c(c2)CN(C2CCC(=O)NC2=O)C3=O)CC1 (centres unmarked) [Compound I-157, 3-(5-(1-(2-methylbenzyl)piperidin-4-yl)-1-oxoisoindolin-2-yl)piperidine-2,6-dione]
55%	16 nM	> 50000 nM	> 50000 nM		Cc1ccc(CN2CCC(c3ccc4c(c3)CN(C3CCC(=O)NC3=O)C4=O)CC2)cc1 (centres unmarked) [Compound I-158, 3-(5-(1-(4-methylbenzyl)piperidin-4-yl)-1-oxoisoindolin-2-yl)piperidine-2,6-dione]
55%	19 nM	> 50000 nM	> 50000 nM		Cc1cc(C)cc(CN2CCC(c3ccc4c(c3)CN(C3CCC(=O)NC3=O)C4=O)CC2)c1 (centres unmarked) [Compound I-159, 3-(5-(1-(3,5-dimethylbenzyl)piperidin-4-yl)-1-oxoisoindolin-2-yl)piperidine-2,6-dione]
50%	18 nM	> 50000 nM	> 50000 nM		C[C@H]1CC(c2ccc3c(c2)CN(C2CCC(=O)NC2=O)C3=O)CCN1Cc1ccccc1 (stereo partly drawn) [Compound I-160, 3-(5-((2S)-1-benzyl-2-methylpiperidin-4-yl)-1-oxoisoindolin-2-yl)piperidine-2,6-dione]
